# Square brackets hold non-standard residues; d marks the D form. Peptide text beside a SMILES is read from it. NMeR = CN[C@@H](CCCNC(=N)N)C(=O)O; NMeI = CC[C@H](C)[C@H](NC)C(=O)O; NMeL = CN[C@@H](CC(C)C)C(=O)O; NMeK = CN[C@@H](CCCCN)C(=O)O
# Columns and labels:
# Erythrocyte = assay: Hemolytic activity in mouse erythrocyte assessed as hemolysis incubated for 1 hr by microplate reader analysis; assay type: toxicity, cell-based
# Bacillus subtilis [1] = assay: Antibacterial activity against Bacillus subtilis ATCC 23857 assessed as reduction in bacterial growth incubated for 18 hrs by CLSI-based Mueller-Hinton broth dilution method; assay type: functional
# Staphylococcus aureus [2] = assay: Antimicrobial activity against Staphylococcus aureus ATCC 25923 assessed as reduction in microbial growth incubated for 18 hrs by CLSI-based Mueller-Hinton broth dilution method; assay type: functional
# [3] = tested on: Staphylococcus epidermidis; assay: Antibacterial activity against Staphylococcus epidermidis ATCC 12228 assessed as reduction in bacterial growth incubated for 18 hrs by CLSI-based Mueller-Hinton broth dilution method; assay type: functional
# Escherichia coli [4] = assay: Antibacterial activity against Escherichia coli ML-35 ATCC 43837 assessed as reduction in bacterial growth incubated for 18 hrs by CLSI-based Mueller-Hinton broth dilution method; assay type: functional
# Klebsiella pneumoniae [5] = assay: Antibacterial activity against Klebsiella pneumoniae ATCC 700603 assessed as reduction in bacterial growth incubated for 18 hrs by CLSI-based Mueller-Hinton broth dilution method; assay type: functional
# Pseudomonas aeruginosa [6] = assay: Antibacterial activity against Pseudomonas aeruginosa ATCC 27853 assessed as reduction in bacterial growth incubated for 18 hrs by CLSI-based Mueller-Hinton broth dilution method; assay type: functional
# Acinetobacter baumannii = assay: Antibacterial activity against Acinetobacter baumannii ATCC 19606 assessed as reduction in bacterial growth incubated for 18 hrs by CLSI-based Mueller-Hinton broth dilution method; assay type: functional
# Staphylococcus aureus [7] = assay: Antibacterial activity against Staphylococcus aureus ATCC 25923 assessed as reduction in bacterial growth incubated for 18 hrs by Mueller-Hinton Broth based microdilution assay; assay type: functional
# Escherichia coli [8] = assay: Antibacterial activity against Escherichia coli ATCC 25922 assessed as reduction in bacterial growth incubated for 18 hrs by Mueller-Hinton Broth based microdilution assay; assay type: functional
# Klebsiella pneumoniae [9] = assay: Antimicrobial activity against Klebsiella pneumoniae ATCC 700603 assessed as reduction in microbial growth incubated for 18 hrs by Mueller-Hinton Broth based microdilution assay; assay type: functional
# Pseudomonas aeruginosa [10] = assay: Antimicrobial activity against Pseudomonas aeruginosa ATCC 27853 assessed as reduction in microbial growth incubated for 18 hrs by Mueller-Hinton Broth based microdilution assay; assay type: functional
# Bacillus subtilis [11] = assay: Antimicrobial activity against Bacillus subtilis ATCC 23857 assessed as reduction in microbial growth incubated for 18 hrs by Mueller-Hinton Broth based microdilution assay; assay type: functional
MIC (Bacillus subtilis [1]) [µM],MIC (Staphylococcus aureus [2]) [µM],MIC [3] [µM],MIC (Escherichia coli [4]) [µM],MIC (Klebsiella pneumoniae [5]) [µM],MIC (Pseudomonas aeruginosa [6]) [µM],MIC (Acinetobacter baumannii) [µM],MIC (Staphylococcus aureus [7]) [µM],MIC (Escherichia coli [8]) [µM],MIC (Klebsiella pneumoniae [9]) [µM],MIC (Pseudomonas aeruginosa [10]) [µM],MIC (Bacillus subtilis [11]) [µM],SMILES,HC10 (Erythrocyte) [µM]
8,32,64,64,128,64,16,–,–,–,–,–,CCCCCCCCCCCCCCCCC(=O)NCCCC[C@@H](NC(=O)[C@H](CC(C)C)NC(=O)[C@H](CC(C)C)NC(=O)CN)C(=O)N[C@@H](CCCNC(=N)N)C(=O)N[C@H](C(=O)N[C@H](CCCCN)C(=O)N[C@H](C(=O)N[C@@H](CC(C)C)C(=O)N[C@@H](CC(C)C)C(N)=O)[C@@H](C)O)[C@@H](C)CC,> 16
4,16,8,32,128,32,32,–,–,–,–,–,CCCCCCCCC(=O)NCCCC[C@@H](NC(=O)[C@H](CC(C)C)NC(=O)[C@H](CC(C)C)NC(=O)CN)C(=O)N[C@@H](CCCNC(=N)N)C(=O)N[C@H](C(=O)N[C@H](CCCCN)C(=O)N[C@H](C(=O)N[C@@H](CC(C)C)C(=O)N[C@@H](CC(C)C)C(N)=O)[C@@H](C)O)[C@@H](C)CC,> 256
64,> 128,128,128,> 128,64,> 128,–,–,–,–,–,CCCCC(=O)NCCCC[C@@H](NC(=O)[C@@H](NC(=O)[C@H](CCCNC(=N)N)NC(=O)[C@@H](CCCCN)NC(=O)[C@H](CC(C)C)NC(=O)[C@H](CC(C)C)NC(=O)CN)[C@@H](C)CC)C(=O)N[C@H](C(=O)N[C@@H](CC(C)C)C(=O)N[C@@H](CC(C)C)C(N)=O)[C@@H](C)O,> 256
4,8,4,8,32,16,8,–,–,–,–,–,CCCCCCCCCCCCCCC(=O)NCCCC[C@@H](NC(=O)[C@H](CC(C)C)NC(=O)[C@H](CC(C)C)NC(=O)CN)C(=O)N[C@@H](CCCNC(=N)N)C(=O)N[C@H](C(=O)N[C@H](CCCCN)C(=O)N[C@H](C(=O)N[C@@H](CC(C)C)C(=O)N[C@@H](CC(C)C)C(N)=O)[C@@H](C)O)[C@@H](C)CC,32
32,> 128,128,> 128,> 128,64,> 128,–,–,–,–,–,CCCCCCC(=O)NCCCC[C@@H](NC(=O)[C@H](CC(C)C)NC(=O)[C@H](CC(C)C)NC(=O)CN)C(=O)N[C@@H](CCCNC(=N)N)C(=O)N[C@H](C(=O)N[C@H](CCCCN)C(=O)N[C@H](C(=O)N[C@@H](CC(C)C)C(=O)N[C@@H](CC(C)C)C(N)=O)[C@@H](C)O)[C@@H](C)CC,> 256
2,4,4,4,8,4,4,–,–,–,–,–,CCCCCCCCCCCCC(=O)NCCCC[C@@H](NC(=O)[C@H](CC(C)C)NC(=O)[C@H](CC(C)C)NC(=O)CN)C(=O)N[C@@H](CCCNC(=N)N)C(=O)N[C@H](C(=O)N[C@H](CCCCN)C(=O)N[C@H](C(=O)N[C@@H](CC(C)C)C(=O)N[C@@H](CC(C)C)C(N)=O)[C@@H](C)O)[C@@H](C)CC,32
2,8,4,4,32,16,8,–,–,–,–,–,CCCCCCCCC(=O)NCCCC[C@@H](NC(=O)[C@@H](NC(=O)[C@H](CCCNC(=N)N)NC(=O)[C@@H](CCCCN)NC(=O)[C@H](CC(C)C)NC(=O)[C@H](CC(C)C)NC(=O)CN)[C@@H](C)CC)C(=O)N[C@H](C(=O)N[C@@H](CC(C)C)C(=O)N[C@@H](CC(C)C)C(N)=O)[C@@H](C)O,256
–,–,–,–,–,–,–,> 128,> 128,> 128,> 128,> 128,CC[C@H](C)[C@H](NC(=O)[C@H](CCCNC(=N)N)NC(=O)[C@H](CCCCN)NC(=O)[C@H](CC(C)C)N(C)C(=O)[C@H](CC(C)C)NC(=O)CN)C(=O)N[C@@H](CCCCN)C(=O)N[C@H](C(=O)N(C)[C@@H](CC(C)C)C(=O)N[C@@H](CC(C)C)C(N)=O)[C@@H](C)O (H-GL[NMeL]KRIKT[NMeL]L-NH2),–
–,–,–,–,–,–,–,> 128,> 128,> 128,32,16,CC[C@H](C)[C@H](NC(=O)[C@H](CCCNC(=N)N)NC(=O)[C@H](CCCCN)NC(=O)[C@H](CC(C)C)NC(=O)[C@H](CC(C)C)N(C)C(=O)CN)C(=O)N[C@@H](CCCCN)C(=O)N[C@H](C(=O)N[C@@H](CC(C)C)C(=O)N[C@@H](CC(C)C)C(N)=O)[C@@H](C)O (H-G[NMeL]LKRIKTLL-NH2),–
–,–,–,–,–,–,–,> 128,> 128,> 128,128,> 128,CC[C@H](C)[C@H](NC(=O)[C@H](CCCNC(=N)N)NC(=O)[C@H](CCCCN)NC(=O)[C@H](CC(C)C)N(C)C(=O)[C@H](CC(C)C)N(C)C(=O)CN)C(=O)N[C@@H](CCCCN)C(=O)N[C@H](C(=O)N(C)[C@@H](CC(C)C)C(=O)N(C)[C@@H](CC(C)C)C(N)=O)[C@@H](C)O (H-G[NMeL][NMeL]KRIKT[NMeL][NMeL]-NH2),–
–,–,–,–,–,–,–,> 128,> 128,> 128,128,128,CC[C@H](C)[C@H](NC(=O)[C@H](CCCNC(=N)N)NC(=O)[C@H](CCCCN)NC(=O)[C@H](CC(C)C)NC(=O)[C@H](CC(C)C)NC(=O)CN)C(=O)N(C)[C@@H](CCCCN)C(=O)N[C@H](C(=O)N[C@@H](CC(C)C)C(=O)N[C@@H](CC(C)C)C(N)=O)[C@@H](C)O (H-GLLKRI[NMeK]TLL-NH2),–
–,–,–,–,–,–,–,> 128,> 128,> 128,64,64,CC[C@H](C)[C@H](NC(=O)[C@H](CCCNC(=N)N)NC(=O)[C@H](CCCCN)NC(=O)[C@H](CC(C)C)N(C)C(=O)[C@H](CC(C)C)NC(=O)CN)C(=O)N[C@@H](CCCCN)C(=O)N[C@H](C(=O)N[C@@H](CC(C)C)C(=O)N[C@@H](CC(C)C)C(N)=O)[C@@H](C)O (H-GL[NMeL]KRIKTLL-NH2),–
–,–,–,–,–,–,–,> 128,> 128,> 128,> 128,128,CC[C@H](C)[C@@H](C(=O)N[C@@H](CCCCN)C(=O)N[C@H](C(=O)N[C@@H](CC(C)C)C(=O)N[C@@H](CC(C)C)C(N)=O)[C@@H](C)O)N(C)C(=O)[C@H](CCCNC(=N)N)NC(=O)[C@H](CCCCN)NC(=O)[C@H](CC(C)C)N(C)C(=O)[C@H](CC(C)C)NC(=O)CN (H-GL[NMeL]KR[NMeI]KTLL-NH2),–
–,–,–,–,–,–,–,> 128,> 128,> 128,> 128,> 128,CC[C@H](C)[C@H](NC(=O)[C@H](CCCNC(=N)N)N(C)C(=O)[C@H](CCCCN)N(C)C(=O)[C@H](CC(C)C)NC(=O)[C@H](CC(C)C)NC(=O)CN)C(=O)N[C@@H](CCCCN)C(=O)N[C@H](C(=O)N[C@@H](CC(C)C)C(=O)N[C@@H](CC(C)C)C(N)=O)[C@@H](C)O (H-GLL[NMeK][NMeR]IKTLL-NH2),–
–,–,–,–,–,–,–,> 128,> 128,> 128,128,> 128,CC[C@H](C)[C@H](NC(=O)[C@H](CCCNC(=N)N)NC(=O)[C@H](CCCCN)N(C)C(=O)[C@H](CC(C)C)NC(=O)[C@H](CC(C)C)NC(=O)CN)C(=O)N(C)[C@@H](CCCCN)C(=O)N[C@H](C(=O)N[C@@H](CC(C)C)C(=O)N[C@@H](CC(C)C)C(N)=O)[C@@H](C)O (H-GLL[NMeK]RI[NMeK]TLL-NH2),–
